Patent publication US20220193384A1, “CUTANEOUS DEVICE FOR STORING AND RELEASING MOLECULES, AND CORRESPONDING METHOD” (priority 2019, published 2022)
In brackets after ≈: the same amount, converted by molar mass. Read-outs that look alike come from different tables or passages of the source.

Experiments:
[1] = C57BL/6, mouse, 100 μg mL^−1, pH 7.4
[2] = drug passed through and remained inside the excised skin; cited from earlier work
[3] = tested on: Gram-negative E. coli K12; assay: Minimum inhibitory concentration (MIC); format: cell-based; conditions: Escherichia coli
[4] = Skin permeation, static Franz diffusion cell, passive and electrothermally activated patch; conditions: stock solution 100 μg mL^−1 for loading, mouse skin
[5] = tested on: blood glucose level; assay: In vivo blood glucose level after insulin injection or insulin-loaded electrothermal patch; conditions: IP or subcutaneous injection of insulin (0.032 UI, 1.12 μg), C57BL/6 mice
[6] = electrothermal activation 1 V, 10 min

| Compound | Active, amount of drug permeated [1] | Flux passive [1] | Passive, amount of drug permeated [1] | Flux active [1] | other results |
| --- | --- | --- | --- | --- | --- |
| O=c1[nH]cc(F)c(=O)[nH]1 [5-fluorouracil] | 23.1 µg/mL | 0 μg cm^−2 h^−1 | 0 µg/mL |  | Flux of 5-fluorouracil reported by Xie et al. [2]: 1.64 μg cm^−2 h^−1 |
| CC1(C)S[C@@H]2[C@H](NC(=O)[C@H](N)c3ccccc3)C(=O)N2[C@H]1C(=O)O [ampicillin] |  |  |  |  | MIC [3]: 10 ± 0.5 µg/mL (≈ 28.6 µM) |
| Cn1c(=O)c2c(ncn2C)n(C)c1=O [caffeine] | 58 µg/mL | 7.18 μg cm^−2 h^−1 | 28 µg/mL | 15.09 μg cm^−2 h^−1 |  |
| CO/N=C(\C(=O)N[C@@H]1C(=O)N2C(C(=O)[O-])=C(C[N+]3(C)CCCC3)CS[C@H]12)c1csc(N)n1 [cefepime] |  |  |  |  | MIC [3]: 10 ± 0.5 µg/mL (≈ 20.8 µM); Active, amount of drug permeated [4, 6]: 18.3 µg/mL; Flux active [4, 6]: 4.67 μg cm^−2 h^−1; Flux passive ([4]; passive, no activation): 0 μg cm^−2 h^−1; Passive, amount of drug permeated ([4]; passive, no activation): 0 µg/mL |
| insulin |  |  |  |  | Time to therapeutic effect (change in blood glucose level) [5]: about 15 min |

Now from value to compound, other results behind:

| Active, amount of drug permeated [1] | Flux passive [1] | Passive, amount of drug permeated [1] | Flux active [1] | Compound | other results |
| --- | --- | --- | --- | --- | --- |
| 62 µg/mL | 0 μg cm^−2 h^−1 | 0 µg/mL | 6.61 μg cm^−2 h^−1 | COc1cccc2c1C(=O)c1c(O)c3c(c(O)c1C2=O)C[C@@](O)(C(=O)CO)C[C@@H]3O[C@H]1C[C@H](N)[C@H](O)[C@H](C)O1 [doxorubicin] |  |
|  |  |  | 4.68 μg cm^−2 h^−1 | CN(C)C(=N)N=C(N)N [metformin] |  |
